Experimental data reported in ChEMBL document CHEMBL1136467, “A simple stereoselective synthesis and biological evaluation of FR181157: orally active prostacyclin mimetic” (Bioorg Med Chem Lett, 2003).
One block for each compound: values may come before it.

Tests used:
[1] = Pharmacokinetic property (t1/2beta) was measured in rat at the dose of 0.32 mg/kg i.v.; format: ADME, organism-based; set-up: dose 0.32 mg/kg, route intravenous; details: in vivo, iv, read-out: T1/2 beta (converted)
Rattus norvegicus = species on record: Rattus norvegicus; assay: In vitro inhibition of ADP-induced platelet aggregation using rat platelet rich plasma; format: functional
[2] = Pharmacokinetic property (Tmax) was measured in rat at the dose of 0.32 mg/kg p.o.; format: ADME, organism-based; set-up: dose 0.32 mg/kg, route oral; details: in vivo, po
Homo sapiens = species on record: Homo sapiens; assay: In vitro inhibition of ADP-induced platelet aggregation using human platelet rich plasma; format: functional
Prostacyclin receptor = Prostacyclin receptor (Homo sapiens, UniProt P43119); assay: In vitro Prostacyclin (PGI-2) receptor binding assay was determined based on displacement of [3H]iloprost radioligand from cloned human IP receptor
Prostacyclin receptor, sequence (P43119 whole entry): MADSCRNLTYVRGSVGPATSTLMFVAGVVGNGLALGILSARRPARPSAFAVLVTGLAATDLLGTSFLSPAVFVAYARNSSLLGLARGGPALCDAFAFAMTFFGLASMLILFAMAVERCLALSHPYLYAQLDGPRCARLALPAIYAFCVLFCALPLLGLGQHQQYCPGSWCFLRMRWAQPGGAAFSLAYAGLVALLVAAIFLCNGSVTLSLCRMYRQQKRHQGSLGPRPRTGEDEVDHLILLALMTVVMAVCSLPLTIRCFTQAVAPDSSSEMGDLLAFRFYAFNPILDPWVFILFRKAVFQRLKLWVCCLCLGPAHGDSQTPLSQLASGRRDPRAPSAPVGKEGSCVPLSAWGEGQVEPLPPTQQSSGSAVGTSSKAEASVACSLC

[3] = Pharmacokinetic property (CLtot)of the compound was measured in rat at the dose of 0.32 mg/kg i.v.; format: ADME, organism-based; set-up: dose 0.32 mg/kg, route intravenous; details: in vivo, iv, read-out: CLtotal
[4] = Pharmacokinetic property (AUC) was measured in dog at the dose of 0.032 mg/kg p.o.; format: ADME, organism-based, Canis lupus familiaris; set-up: dose 0.032 mg/kg, route oral; details: in vivo, po
Canis familiaris = species on record: Canis familiaris; assay: In vitro inhibition of ADP-induced platelet aggregation using dog platelet rich plasma; format: functional; details: Canis lupus familiaris
[5] = Pharmacokinetic property (AUC) was measured in rat at the dose of 0.32 mg/kg p.o.; format: ADME, organism-based; set-up: dose 0.32 mg/kg, route oral; details: in vivo, po
[6] = Pharmacokinetic property (F) was measured in dog at the dose of 0.032 mg/kg; format: ADME, organism-based, Canis lupus familiaris; set-up: dose 0.032 mg/kg; details: in vivo
[7] = Pharmacokinetic property (t1/2beta) was measured in dog at the dose of 0.032 mg/kg i.v.; format: ADME, organism-based, Canis lupus familiaris; set-up: dose 0.032 mg/kg, route intravenous; details: in vivo, iv, read-out: T1/2 beta (converted)
[8] = Pharmacokinetic property (Tmax) was measured in dog at the dose of 0.032 mg/kg p.o.; format: ADME, organism-based, Canis lupus familiaris; set-up: dose 0.032 mg/kg, route oral; details: in vivo, po
[9] = Pharmacokinetic property (F) was measured in rat at the dose of 0.32 mg/kg; format: ADME, organism-based; set-up: dose 0.32 mg/kg; details: in vivo
[10] = Pharmacokinetic property (CLtot) was measured in dog at the dose of 0.032 mg/kg i.v.; format: ADME, organism-based, Canis lupus familiaris; set-up: dose 0.032 mg/kg, route intravenous; details: in vivo, iv, read-out: CLtotal
[11] = Pharmacokinetic property (Cmax) was measured in dog at the dose of 0.032 mg/kg; format: ADME, organism-based, Canis lupus familiaris; set-up: dose 0.032 mg/kg; details: in vivo
[12] = Pharmacokinetic property (Cmax) was measured in rat at the dose of 0.32 mg/kg p.o.; format: ADME, organism-based; set-up: dose 0.32 mg/kg, route oral; details: in vivo, po

half-life [1]: 6.6 h
IC50 (Rattus norvegicus): 1.2 µM
Tmax [2]: 0.3 h
IC50 (Homo sapiens): 0.06 µM
Ki (Prostacyclin receptor): 0.054 µM
clearance [3]: 1.06 L/h/kg
AUC [4]: 0.392 µg·h/mL
IC50 (Canis familiaris): 1.3 µM
AUC [5]: 0.147 µg·h/mL
bioavailability [6]: 72%
half-life [7]: 26 h
Tmax [8]: 2.3 h
bioavailability [9]: 50%
clearance [10]: 0.0654 L/h/kg
Cmax [11]: 0.0387 µg/mL
Cmax [12]: 0.0164 µg/mL
Compound: O=C([O-])COc1cccc(C[C@@H]2CCCC=C2c2nc(-c3ccccc3)c(-c3ccccc3)o2)c1.[Na+]

IC50 (Homo sapiens): 0.53 µM
Compound: O=C(O)COc1cccc(CC2=C(c3nc(-c4ccccc4)c(-c4ccccc4)o3)CCCC2)c1

IC50 (Homo sapiens): 0.11 µM
Compound: O=C(O)COc1cccc(C[C@H]2CCCC=C2c2nc(-c3ccccc3)c(-c3ccccc3)o2)c1

IC50 (Homo sapiens): 0.0025 µM
Compound: CC#CCC(C)[C@H](O)/C=C/[C@@H]1[C@H]2C/C(=C/CCCC(=O)O)C[C@H]2C[C@H]1O (some centres undefined) [ILOPROST]
